This note sets out measurements from article PMC3976565 (Science (New York, N.Y.), 2013).

For this experiment, the target named is SelA-ΔN (Aquifex aeolicus, UniProt O67140). In words: X-ray crystallography. Type of experiment: binding. Particulars: 3.25 A; covalent, Lys285; thiosulfate co-bound.
Sequence of SelA-ΔN (O67140 62-452, stated change not applied): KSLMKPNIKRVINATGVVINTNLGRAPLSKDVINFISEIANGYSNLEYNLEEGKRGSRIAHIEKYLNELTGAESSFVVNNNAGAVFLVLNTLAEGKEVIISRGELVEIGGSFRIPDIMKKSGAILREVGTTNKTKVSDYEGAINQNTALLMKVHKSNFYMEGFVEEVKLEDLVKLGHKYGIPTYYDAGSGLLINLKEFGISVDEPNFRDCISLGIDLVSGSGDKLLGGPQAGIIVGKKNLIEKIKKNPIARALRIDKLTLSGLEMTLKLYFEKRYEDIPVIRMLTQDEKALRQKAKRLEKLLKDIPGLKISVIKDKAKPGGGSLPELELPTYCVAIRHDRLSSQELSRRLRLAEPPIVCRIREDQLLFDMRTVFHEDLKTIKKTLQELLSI

In the case of `Cc1ncc(COP(=O)(O)O)c(C=O)c1O` [PLP], the X-ray crystallography entry is “SelA-ΔN in complex with thiosulfate. PLP and thiosulfate ions (TS1 to TS3) are shown”.
